Where two headings read alike, the source gives them in different places.
Columns and labels:
Assay type in all cases: in vivo
[1] = test system: sedge, umbrella (small-flower umbrella sedge, Cyperus difformis); experiment: Test B flooded paddy test; conditions: 250 g ai/ha, Flood, visual rating on scale of 0 to 100 where 0 is no effect and 100 is complete control, 13 to 15 d after treatment
Procedure: (§1) Plant species in the flooded paddy test selected from rice (Oryza sativa), sedge, umbrella (small-flower umbrella sedge, Cyperus difformis), ducksalad (Heteranthera limosa), and barnyardgrass (Echinochloa crus-galli) were grown to the 2-leaf stage for testing. At time of treatment, test pots were flooded to 3 cm above the soil surface, treated by application of test compounds directly to the paddy water, and then maintained at that water depth for the duration of the test. Treated plants and controls were maintained in a greenhouse for 13 to 15 d, after which time all species were compared to controls and visually evaluated. Plant response ratings, summarized in Table B, are based on a scale of 0 to 100 where 0 is no effect and 100 is complete control. A dash (-) response means no test result.

[2] = test system: ducksalad (Heteranthera limosa); experiment: Test B flooded paddy test; conditions: 250 g ai/ha, Flood, visual rating on scale of 0 to 100 where 0 is no effect and 100 is complete control, 13 to 15 d after treatment
Procedure: as §1

[3] = test system: barnyardgrass (Echinochloa crus-galli); experiment: Test B flooded paddy test; conditions: 250 g ai/ha, Flood, visual rating on scale of 0 to 100 where 0 is no effect and 100 is complete control, 13 to 15 d after treatment
Procedure: as §1

rice (Oryza sativa) = experiment: Test B flooded paddy test; conditions: 250 g ai/ha, Flood, visual rating on scale of 0 to 100 where 0 is no effect and 100 is complete control, 13 to 15 d after treatment
Procedure: as §1

[4] = test system: blackgrass (Alopecurus myosuroides); experiment: Test A greenhouse herbicide test, postemergence; conditions: for Plant response rating, Blackgrass: 125 g ai/ha, 0 to 100 scale where 0 is no effect and 100 is complete control; for Blackgrass plant response rating: 500 g ai/ha
From the text: (§2) At the same time, plants selected from these crop and weed species and also blackgrass (Alopecurus myosuroides), and galium (catchweed bedstraw, Galium aparine) were planted in pots containing the same blend of loam soil and sand and treated with postemergence applications of test chemicals formulated in the same manner. Plants ranged in height from 2 to 10 cm and were in the one- to two-leaf stage for the postemergence treatment. Treated plants and untreated controls were maintained in a greenhouse for approximately 10 d, after which time all treated plants were compared to untreated controls and visually evaluated for injury. Plant response ratings, summarized in Table A, are based on a 0 to 100 scale where 0 is no effect and 100 is complete control. A dash (-) response means no test result.

[5] = test system: galium (catchweed bedstraw, Galium aparine); experiment: Test A greenhouse herbicide test, postemergence; conditions: for Plant response rating, Galium: 125 g ai/ha, 0 to 100 scale where 0 is no effect and 100 is complete control; for Galium plant response rating: 500 g ai/ha
From the text: as §2

kochia (Kochia scoparia) = experiment: Test A greenhouse herbicide test, pre- and postemergence; conditions: for pest or weed control at 1000 g/ha: Bassia scoparia, 240 h, 1000 g ai/ha
From the text: (§3) Seeds of plant species selected from barnyardgrass (Echinochloa crus-galli), kochia (Kochia scoparia), ragweed (common ragweed, Ambrosia elatior), ryegrass, Italian (Italian ryegrass, Lolium multiflorum), crabgrass, large (large crabgrass, Digitaria sanguinalis), foxtail, giant (giant foxtail, Setaria faberii), momingglory (Ipomoea spp.), pigweed (Amaranthus retroflexus), velvetleaf (Abutilon theophrasti), wheat (Triticum aestivum), and corn (Zea mays) were planted into a blend of loam soil and sand and treated preemergence with a directed soil spray using test chemicals formulated in a non-phytotoxic solvent mixture which included a surfactant.
as §2

[6] = test system: pigweed (Amaranthus retroflexus); experiment: as above; conditions: for pest or weed control at 1000 g/ha: Amaranthus retroflexus, 240 h, 1000 g ai/ha
From the text: as §3, §2

[7] = test system: foxtail, giant (giant foxtail, Setaria faberii); experiment: as above; conditions: for pest or weed control at 1000 g/ha: Setaria faberi, 240 h, 1000 g ai/ha
From the text: as §3, §2

[8] = test system: ryegrass, Italian (Italian ryegrass, Lolium multiflorum); experiment: as above; conditions: for pest or weed control at 1000 g/ha: Lolium multiflorum, 240 h, 1000 g ai/ha
From the text: as §3, §2

corn (Zea mays) = experiment: as above; conditions: Postemergence; for Plant response rating, Corn: 125 g ai/ha, 0 to 100 scale where 0 is no effect and 100 is complete control; for Corn plant response rating: 500 g ai/ha
From the text: as §3, §2

[9] = test system: ragweed (common ragweed, Ambrosia elatior); experiment: as above; conditions: for pest or weed control at 1000 g/ha: Ambrosia artemisiifolia, 240 h, 1000 g ai/ha
From the text: as §3, §2

[10] = test system: wheat (Triticum aestivum); experiment: as above; conditions: Postemergence; for Plant response rating, Wheat: 125 g ai/ha, 0 to 100 scale where 0 is no effect and 100 is complete control; for Wheat plant response rating: 500 g ai/ha
From the text: as §3, §2

[11] = test system: barnyardgrass (Echinochloa crus-galli); experiment: as above; conditions: for pest or weed control at 1000 g/ha: Echinochloa crus-galli, 240 h, 1000 g ai/ha
From the text: as §3, §2

[12] = 0 to 100 scale, 0 is no effect, 100 is complete control
[13] = Postemergence, 125 g ai/ha, 0 to 100 scale where 0 is no effect and 100 is complete control
[14] = Postemergence, 500 g ai/ha, 0 to 100 scale, 0 is no effect, 100 is complete control
[15] = Preemergence, 125 g ai/ha, 0 to 100 scale where 0 is no effect and 100 is complete control
[16] = Preemergence, 500 g ai/ha, 0 to 100 scale, 0 no effect, 100 complete control

For `CCc1ccc2oc(C)c(-c3c(O)c(C)nn(C)c3=O)c2c1` [Compound 13, 4-(5-ethyl-2-methyl-3-benzofuranyl)-5-hydroxy-2,6-dimethyl-3(2H)-pyridazinone], the pest or weed control at 250 g/ha ([1]; Cyperus difformis, 360 h, read-out: Plant response rating, Sedge, Umbrella) was 0%, the pest or weed control at 250 g/ha ([2]; Heteranthera limosa, 360 h, read-out: Plant response rating, Ducksalad) was 0% and the pest or weed control at 250 g/ha ([3]; Echinochloa crus-galli, 360 h, read-out: Plant response rating, Barnyardgrass) was 0%. It also gave a plant injury at 250 g/ha (rice (Oryza sativa); Oryza sativa, 360 h, read-out: Plant response rating, Rice) of 0%, a pest or weed control at 1000 g/ha ([4]; Alopecurus myosuroides, post-emergence, 240 h, 1000 g ai/ha, 0 to 100 scale, 0 is no effect, 100 is complete control, read-out: Blackgrass plant response rating) of 30% and a pest or weed control at 1000 g/ha ([5]; Galium, post-emergence, 240 h, 1000 g ai/ha, 0 to 100 scale, 0 is no effect, 100 is complete control, read-out: Galium plant response rating) of 70%. It also gave a pest or weed control at 1000 g/ha (kochia (Kochia scoparia); post-emergence, Postemergence, 0 to 100 scale, 0 is no effect, 100 is complete control, read-out: Kochia plant response rating) of 30%, a pest or weed control at 1000 g/ha (kochia (Kochia scoparia); pre-emergence, Preemergence, 0 to 100 scale, 0 no effect, 100 complete control, read-out: Plant response rating, Kochia) of 20% and a pest or weed control at 1000 g/ha ([6]; post-emergence, Postemergence, 0 to 100 scale, 0 is no effect, 100 is complete control, read-out: Pigweed plant response rating) of 20%. For the same compound, the pest or weed control at 1000 g/ha ([6]; pre-emergence, Preemergence, 0 to 100 scale, 0 no effect, 100 complete control, read-out: Plant response rating, Pigweed) was 0%, the pest or weed control at 1000 g/ha ([7]; post-emergence, Postemergence, 0 to 100 scale, 0 is no effect, 100 is complete control, read-out: Foxtail, Giant plant response rating) was 80% and the pest or weed control at 1000 g/ha ([7]; pre-emergence, Preemergence, 0 to 100 scale, 0 no effect, 100 complete control, read-out: Plant response rating, Foxtail, Giant) was 50%. The pest or weed control at 1000 g/ha ([8]; post-emergence, Postemergence, 0 to 100 scale, 0 is no effect, 100 is complete control, read-out: Ryegrass, Italian plant response rating) was 70%, the pest or weed control at 1000 g/ha ([8]; pre-emergence, Preemergence, 0 to 100 scale, 0 no effect, 100 complete control, read-out: Plant response rating, Ryegrass, Italian) was 60% and the plant injury at 1000 g/ha (corn (Zea mays); Zea mays, post-emergence, 240 h, 1000 g ai/ha, 0 to 100 scale, 0 is no effect, 100 is complete control, read-out: Corn plant response rating) was 20%. The pest or weed control at 1000 g/ha ([9]; post-emergence, Postemergence, 0 to 100 scale, 0 is no effect, 100 is complete control, read-out: Ragweed plant response rating) was 30%, the pest or weed control at 1000 g/ha ([9]; pre-emergence, Preemergence, 0 to 100 scale, 0 no effect, 100 complete control, read-out: Plant response rating, Ragweed) was 0% and the plant injury at 1000 g/ha ([10]; Triticum aestivum, post-emergence, 240 h, 1000 g ai/ha, 0 to 100 scale, 0 is no effect, 100 is complete control, read-out: Wheat plant response rating) was 20%. It also gave a pest or weed control at 1000 g/ha ([11]; post-emergence, Postemergence, 0 to 100 scale, 0 is no effect, 100 is complete control, read-out: Barnyardgrass plant response rating) of 80% and a pest or weed control at 1000 g/ha ([11]; pre-emergence, Preemergence, 0 to 100 scale, 0 no effect, 100 complete control, read-out: Plant response rating, Barnyardgrass) of 60%.
With `Cc1cc(C)c2sc(C)c(-c3c(OC(=O)C(C)(C)C)c(C)nn(C)c3=O)c2c1` [Compound 43] the “Plant response rating, Sedge, Umbrella” value [1] was 0, the “Plant response rating, Ducksalad” value [2] was 0 and the “Plant response rating, Barnyardgrass” value [3] was 0. The “Plant response rating, Rice” value (rice (Oryza sativa)) was 0, the “Plant response rating, Blackgrass” value [4] was 30 and the “Blackgrass plant response rating” value [4, 12] was 80. For the same compound, the “Plant response rating, Galium” value [5] was 50, the “Galium plant response rating” value [5, 12] was 90 and the “Plant response rating, Kochia” value (kochia (Kochia scoparia); [13]) was 0. The “Kochia plant response rating” value (kochia (Kochia scoparia); [14]) was 10, the “Kochia plant response rating” value (kochia (Kochia scoparia); [15]) was 50 and the “Plant response rating, Kochia” value (kochia (Kochia scoparia); [16]) was 20. The “Plant response rating, Pigweed” value [6, 13] was 0, the “Pigweed plant response rating” value [6, 14] was 10 and the “Pigweed plant response rating” value [6, 15] was 0. For the same compound, the “Plant response rating, Pigweed” value [6, 16] was 10, the “Plant response rating, Foxtail, Giant” value [7, 13] was 0 and the “Foxtail, Giant plant response rating” value [7, 14] was 70. The “Foxtail, Giant plant response rating” value [7, 15] was 0, the “Plant response rating, Foxtail, Giant” value [7, 16] was 50 and the “Plant response rating, Ryegrass, Italian” value [8, 13] was 40. For the same compound, the “Ryegrass, Italian plant response rating” value [8, 14] was 60, the “Ryegrass, Italian plant response rating” value [8, 15] was 10 and the “Plant response rating, Ryegrass, Italian” value [8, 16] was 70. The “Plant response rating, Corn” value (corn (Zea mays)) was 0, the “Corn plant response rating” value (corn (Zea mays); [12]) was 0 and the “Plant response rating, Ragweed” value [9, 13] was 0. For the same compound, the “Ragweed plant response rating” value [9, 14] was 0, the “Ragweed plant response rating” value [9, 15] was 0 and the “Plant response rating, Ragweed” value [9, 16] was 10. The “Plant response rating, Wheat” value [10] was 0, the “Wheat plant response rating” value [10, 12] was 0 and the “Plant response rating, Barnyardgrass” value [11, 13] was 0. The “Barnyardgrass plant response rating” value [11, 14] was 30, the “Barnyardgrass plant response rating” value [11, 15] was 0 and the “Plant response rating, Barnyardgrass” value [11, 16] was 10.
For `CC(=O)Oc1c(C)nn(C)c(=O)c1-c1c(C)sc2cc(C)cc(C)c12` [Compound 44], the “Plant response rating, Sedge, Umbrella” value [1] was 0, the “Plant response rating, Ducksalad” value [2] was 0 and the “Plant response rating, Barnyardgrass” value [3] was 0. The “Plant response rating, Rice” value (rice (Oryza sativa)) was 0, the “Plant response rating, Blackgrass” value [4] was 0 and the “Blackgrass plant response rating” value [4, 12] was 0. For the same compound, the “Plant response rating, Galium” value [5] was 30, the “Galium plant response rating” value [5, 12] was 70 and the “Plant response rating, Kochia” value (kochia (Kochia scoparia); [13]) was 0. The “Kochia plant response rating” value (kochia (Kochia scoparia); [14]) was 0, the “Kochia plant response rating” value (kochia (Kochia scoparia); [15]) was 0 and the “Plant response rating, Kochia” value (kochia (Kochia scoparia); [16]) was 0. For the same compound, the “Plant response rating, Pigweed” value [6, 13] was 0, the “Pigweed plant response rating” value [6, 14] was 0 and the “Pigweed plant response rating” value [6, 15] was 0. The “Plant response rating, Pigweed” value [6, 16] was 0, the “Plant response rating, Foxtail, Giant” value [7, 13] was 0 and the “Foxtail, Giant plant response rating” value [7, 14] was 0. The “Foxtail, Giant plant response rating” value [7, 15] was 0, the “Plant response rating, Foxtail, Giant” value [7, 16] was 0 and the “Plant response rating, Ryegrass, Italian” value [8, 13] was 0. For the same compound, the “Ryegrass, Italian plant response rating” value [8, 14] was 0, the “Ryegrass, Italian plant response rating” value [8, 15] was 0 and the “Plant response rating, Ryegrass, Italian” value [8, 16] was 0. The “Plant response rating, Corn” value (corn (Zea mays)) was 0, the “Corn plant response rating” value (corn (Zea mays); [12]) was 0 and the “Plant response rating, Ragweed” value [9, 13] was 0. The “Ragweed plant response rating” value [9, 14] was 0, the “Ragweed plant response rating” value [9, 15] was 0 and the “Plant response rating, Ragweed” value [9, 16] was 10. For the same compound, the “Plant response rating, Wheat” value [10] was 0, the “Wheat plant response rating” value [10, 12] was 0 and the “Plant response rating, Barnyardgrass” value [11, 13] was 0. The “Barnyardgrass plant response rating” value [11, 14] was 0, the “Barnyardgrass plant response rating” value [11, 15] was 0 and the “Plant response rating, Barnyardgrass” value [11, 16] was 0.
